Measurements taken from publication PMC5349910, “Discovery of BPR1K871, a quinazoline based, multi-kinase inhibitor for the treatment of AML and solid tumors: Rational design, synthesis, in vitro and in vivo evaluation” (Oncotarget, 2016).
pEC50, pIC50: −log10 of the molar value. In brackets after ≈: the same amount, converted by molar mass. Several values for one entry are separate records, joined by “and”; a condition that tells them apart may be missing. Identical values can stand only once. Like-named read-outs stand apart in the source and are kept apart here.

Columns and labels:
MOLM-13 cells = test: MTS cell viability assay, MOLM-13; format: cell-based, human; settings: read-out: MOLM-13 EC50
Experimental: (§1) The MTS cell viability assay was conducted as previously described. The MOLM-13 human leukemia cell line was obtained from the German Resource Centre for Biological Material (DSMZ, Braunschweig, Germany); the MV4-11 cell line was purchased from the American Type Culture Collection (ATCC, Manassas, VA, USA). […] To determine cell viability after drug treatment, assay for MOLM-13 and MV4-11 was performed by seeding 10000 cells per well in a 96-well culture plate. […] After 16 h, cells were then treated with vehicle or various concentrations of compound in medium for 72 h. Viable cells were quantified using the MTS method (Promega, Madison, WI, USA) according to the manufacturer's recommended protocol. Results were determined by measuring the absorbance at 490 nm using a plate reader (Victor2; PerkinElmer, Shelton, CT, USA).

[1] = system: Detroit 551 (human normal skin fibroblast cells); test: MTS cell viability assay, Detroit-551; format: cell-based; settings: 72 h
Experimental: The MTS cell viability assay was conducted as previously described. The MOLM-13 human leukemia cell line was obtained from the German Resource Centre for Biological Material (DSMZ, Braunschweig, Germany); the MV4-11 cell line was purchased from the American Type Culture Collection (ATCC, Manassas, VA, USA). Both the leukemia cell lines were maintained in RPMI 1640 medium supplemented with 10% fetal bovine serum (FBS), 10 UmL^-1 penicillin, and […] streptomycin at 37°C and 5% CO2. The Detroit-551, COLO205, and Mia-PaCa2 cell lines were purchased from the American Type Culture Collection (ATCC, Manassas, VA, USA) and cultured according to instructions of ATCC. To determine cell viability after drug treatment, assay for MOLM-13 and MV4-11 was performed by seeding 10000 cells per well in a 96-well culture plate. Detroit-551, COLO205, and Mia-PaCa2 were seeded at density of 2500, 4000, and 3750 cells per well, respectively. After 16 h, cells were then treated with vehicle or various concentrations of compound in medium for 72 h. Viable cells were quantified using the MTS method (Promega, Madison, WI, USA) according to the manufacturer's recommended protocol. Results were determined by measuring the absorbance at 490 nm using a plate reader (Victor2; PerkinElmer, Shelton, CT, USA).

Aqueous solubility = format: physicochemical; settings: in water
AURKA = biological target: T1, AURKA (Homo sapiens, UniProt O14965); test: AURKA inhibition assay (Kinase-Glo); format: biochemical; settings: for pIC50: mean of at least two independent experiments, within ±15%; for selectivity for AURKA over FLT3: from enzyme IC50
T1 construct: recombinant GST-AURKA (residues Ser123-Ser401) containing the kinase domain; GST (N); made in house; host or cells: Sf9 insect cells
T1 sequence (O14965 123-401): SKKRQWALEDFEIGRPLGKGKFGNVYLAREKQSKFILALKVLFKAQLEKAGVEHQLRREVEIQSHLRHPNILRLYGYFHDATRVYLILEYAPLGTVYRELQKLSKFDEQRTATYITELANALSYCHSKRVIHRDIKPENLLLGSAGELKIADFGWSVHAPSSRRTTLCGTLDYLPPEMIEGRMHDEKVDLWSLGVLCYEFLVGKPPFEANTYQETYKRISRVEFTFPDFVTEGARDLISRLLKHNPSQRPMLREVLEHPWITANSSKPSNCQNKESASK
Experimental: AURKA assay was conducted as previously described. Briefly, the recombinant GST-AURKA (residues Ser123-Ser401) containing the kinase domain was expressed in Sf9 insect cells.
Following incubation, 50 μL Kinase-Glo Plus Reagent (Promega, Madison, WI, USA) was added, and the mixture was incubated at 25°C for 20 min.

AURKB = AURKB (Homo sapiens, UniProt Q96GD4); test: AURKB inhibition assay (Kinase-Glo); format: biochemical; set-up: full length His-tagged Aurora-B (residues M1∼A344); His; purchased Invitrogen PV6130; settings: 500 nM; duplicate determination
Chain of AURKB (Q96GD4 whole entry): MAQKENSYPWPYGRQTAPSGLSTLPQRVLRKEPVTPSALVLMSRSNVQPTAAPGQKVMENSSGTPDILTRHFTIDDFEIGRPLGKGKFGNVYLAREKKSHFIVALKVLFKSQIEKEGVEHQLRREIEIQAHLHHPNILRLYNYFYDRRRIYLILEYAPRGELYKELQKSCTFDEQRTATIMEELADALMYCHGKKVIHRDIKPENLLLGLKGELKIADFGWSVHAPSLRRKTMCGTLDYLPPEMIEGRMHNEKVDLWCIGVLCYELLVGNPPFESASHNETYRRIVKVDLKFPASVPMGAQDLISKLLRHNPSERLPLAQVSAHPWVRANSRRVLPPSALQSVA
Experimental: AURKB assay was conducted as previously described. Briefly, the recombinant full length His-tagged Aurora-B (residues M1∼A344) was purchased from Invitrogen (Catalog number: PV6130). The kinase assay was carried out in 96-well plates with the tested compound in reaction solution (50 mM Tris-HCl pH 7.4, 10 mM NaCl, 10 mM MgCl2, 0.01% BSA, 5 mM ATP, 1 mM DTT and 15 mM tetra(LRRASLG) peptide, and 40 ng recombinant Aurora-B) at 30°C for 180 min.
(§2) Following incubation, 50 μL Kinase-Glo Plus Reagent (Promega, Madison, WI, USA) was added, and the mixture was incubated at 25°C for 20 min. A 70 μL aliquot of each reaction mixture was transferred to a black microliter plate, and luminescence was measured on a Wallac Vector 1420 multilabel counter (PerkinElmer, Shelton, CT, USA).

MV4-11 cells = test: MTS cell viability assay, MV4-11; format: cell-based, human; settings: read-out: MV4-11 EC50
Experimental: as §1

FLT3 [2] = biological target: T2, FLT3 (Homo sapiens, UniProt P36888); test: FLT3 kinase inhibition assay (Kinase-Glo); format: biochemical; settings: for pIC50: mean of at least two independent experiments, within ±15%; for selectivity for FLT3 over AURKA: from enzyme IC50
T2 construct: FLT3 kinase catalytic domain (residues Tyr567-Ser993); made in house; host or cells: Sf9 insect cells (baculovirus, pBac-PAK8-GST-FLT3-KD)
T2 sequence (P36888 567-993): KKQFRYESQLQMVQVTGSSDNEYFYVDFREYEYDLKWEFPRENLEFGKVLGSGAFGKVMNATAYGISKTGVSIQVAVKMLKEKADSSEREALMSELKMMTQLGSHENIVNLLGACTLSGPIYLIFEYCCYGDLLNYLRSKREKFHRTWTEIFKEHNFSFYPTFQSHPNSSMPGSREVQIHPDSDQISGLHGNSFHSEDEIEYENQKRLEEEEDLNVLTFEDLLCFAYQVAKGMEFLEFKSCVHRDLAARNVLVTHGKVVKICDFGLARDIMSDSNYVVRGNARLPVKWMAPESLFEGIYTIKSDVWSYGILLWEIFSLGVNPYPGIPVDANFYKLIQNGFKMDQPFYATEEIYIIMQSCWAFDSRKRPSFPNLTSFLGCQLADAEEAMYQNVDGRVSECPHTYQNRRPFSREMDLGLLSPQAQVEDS
Experimental: The FLT3 assay was conducted as previously described. Briefly, GST-FLT3-KD^WT containing the FLT3 kinase catalytic domain (residues Tyr567-Ser993) was expressed in Sf9 insect cells transfected with the baculovirus containing pBac-PAK8-GST-FLT3-KD plasmid.
as §2

HCC827 cells = test: Anti-proliferative activity, HCC827; format: cell-based; settings: Homo sapiens
Mia-PaCa2 cells = test: Anti-proliferative activity, Mia-PaCa2; format: cell-based, human; settings: Homo sapiens, MIA PaCa-2, Human Pancreatic Cancer; supplement values ± SEM
H2228 cells = test: Anti-proliferative activity, H2228; format: cell-based; settings: Homo sapiens
H1975 cells = test: Anti-proliferative activity, H1975; format: cell-based; settings: Homo sapiens
HCT-116 cells = test: Anti-proliferative activity, HCT-116; format: cell-based, human
CL-97 cells = test: Anti-proliferative activity, CL-97; format: cell-based, human
RS4-11 cells = test: Anti-proliferative activity, RS4-11; format: cell-based; settings: Homo sapiens
U937 cells = test: Anti-proliferative activity, U937; format: cell-based; settings: Homo sapiens, U-937, read-out: U937 EC50
K562 cells = test: Anti-proliferative activity, K562; format: cell-based; settings: Homo sapiens, K562, read-out: K562 EC50
FLT3 [3] = biological target: T2, FLT3; set-up: method as in PMID 20550212, PMID 23172777, PMID 24665000; settings: previously reported leads 1, 2, 3; cited from earlier work
[4] = Homo sapiens, MOLM-13, 72 h, MTS, 72 h, AML-FLT3-ITD (heterozygous), supplement values ± SEM
[5] = Homo sapiens, MV4-11, 72 h, MTS, 72 h, AML-FLT3-ITD (homozygous), supplement values ± SEM

SMILES	pEC50 (MOLM-13 cells; [4])	pEC50 [1]	pIC50 (AURKA)	inhibition at 0.5 µM (AURKB) [%]	pEC50 (MV4-11 cells; [5])	pIC50 (FLT3 [2])	other results
COc1cc2ncnc(NCCc3cnc(NC(=O)Nc4cccc(Cl)c4)s3)c2cc1OC [Compound 4]	~7.40	5.04	8.30 and 8.31	100	~7.40	6.90	pEC50 (MOLM-13 cells; MTS, 72 h, AML-FLT3-ITD (heterozygous), supplement values ± SEM): 7.70; solubility (Aqueous solubility): 0.452 µg/mL (≈ 0.932 µM); pEC50 (MV4-11 cells; MTS, 72 h, AML-FLT3-ITD (homozygous), supplement values ± SEM): 7.37
COc1ccc(Cl)cc1NC(=O)Nc1ncc(CCNc2ncnc3cc(OCCCN(C)C)ccc23)s1 [Compound 13]	8.17	5.28	6.33	48.6	8.68	7.80	selectivity for FLT3 over AURKA (FLT3 [2]): 30 fold
CN(C)CCOc1ccc2c(NCCc3cnc(NC(=O)Nc4cccc(Cl)c4)s3)ncnc2c1 [Compound 9]	7.40	5.47	7.77	90.1	7.24	7.24	–
CO[C@@H]1[C@H](N(C)C(=O)c2ccccc2)C[C@H]2O[C@]1(C)n1c3ccccc3c3c4c(c5c6ccccc6n2c5c31)C(=O)NC4 [PKC412]	–	–	–	–	–	–	pEC50 (HCC827 cells; HCC827, NSCLC-EGFR L858R, supplement values ± SEM, read-out: HCC827 EC50): 6.16
Cc1ccc(Cl)cc1NC(=O)Nc1ncc(CCNc2ncnc3cc(OCCCN(C)C)ccc23)s1 [Compound 14]	7.90	5.42	6.88	63	8.48	7.69	selectivity for FLT3 over AURKA (FLT3 [2]): ~8 fold
CNC(=O)c1cc(Oc2ccc(NC(=O)Nc3ccc(Cl)c(C(F)(F)F)c3)cc2)ccn1 [Sorafenib]	–	–	–	–	–	–	pEC50 (Mia-PaCa2 cells): 5.11; pEC50 (H2228 cells; NCI-H2228, NSCLC-ALK, supplement values ± SEM, read-out: H2228 EC50): 5.10; pEC50 (H1975 cells; NCI-H1975, NSCLC-EGFR LR/TM, supplement values ± SEM, read-out: H1975 EC50): 5.15; pEC50 (HCT-116 cells; HCT-116, Human Colon Cancer, supplement values ± SEM, read-out: HCT-116 EC50): 5.06; pEC50 (CL-97 cells; CL97, Human Lung Cancer, supplement values ± SEM, read-out: CL-97 EC50): 5.15; pEC50 (RS4-11 cells; RS4-11, ALL-wt-FLT3 (homozygous), supplement values ± SEM, read-out: RS4-11 EC50): 5.03
CCN(CCCOc1ccc2c(Nc3cc(CC(=O)Nc4cccc(F)c4)n[nH]3)ncnc2c1)CCOP(=O)(O)O [Barasertib]	–	–	–	–	–	–	pEC50 (MOLM-13 cells; Homo sapiens, MOLM-13, 72 h): 7.38; pEC50 (U937 cells): < 5.00; pEC50 (H2228 cells; NCI-H2228, read-out: H2228 EC50): 6.47; pEC50 (K562 cells): < 5.00; pEC50 (H1975 cells; NCI-H1975, read-out: H1975 EC50): 6.41; pEC50 (HCC827 cells; HCC827, read-out: HCC827 EC50): 6.90; pEC50 (HCT-116 cells; Homo sapiens, HCT-116, read-out: HCT-116 EC50): 7.17; pEC50 (CL-97 cells; Homo sapiens, CL97, read-out: CL-97 EC50): 6.34; pEC50 (MV4-11 cells; Homo sapiens, MV4-11, 72 h): 7.77; pEC50 (RS4-11 cells; RS4-11, read-out: RS4-11 EC50): 7.96
COc1cc2ncnc(NCCc3ccc(NC(=O)Nc4ccccc4)cc3)c2cc1OC [Compound 2]	–	–	–	–	–	–	pIC50 (FLT3 [3]): < 5.00
COCCOc1ccc2c(NCCc3cnc(NC(=O)Nc4cccc(Cl)c4)s3)ncnc2c1 [Compound 8]	8.10	5.54	7.96	85.9	8.02	6.99	solubility (Aqueous solubility): 0.107 µg/mL (≈ 0.214 µM)
COc1cccc(NC(=O)Nc2ncc(CCNc3ncnc4cc(OCCCN(C)C)ccc34)s2)c1 [Compound 12]	7.91	5.01	7.72	90	7.96	7.01	–
O=C(Nc1ccccc1)Nc1ccc(CCNc2ncnc3oc(-c4ccccc4)c(-c4ccccc4)c23)cc1 [Compound 1]	–	–	–	–	–	–	pIC50 (FLT3 [3]): < 5.00
COCCOc1ccc2ncnc(NCCc3cnc(NC(=O)Nc4cccc(Cl)c4)s3)c2c1 [Compound 7]	6.39	5.10	8.00	42	6.47	5.89	selectivity for AURKA over FLT3 (AURKA): 100 fold
COCCOc1cc2ncnc(NCCc3cnc(NC(=O)Nc4cccc(Cl)c4)s3)c2cc1OCCOC [Compound 6]	7.05	5.46	8.22	70.4	6.99	7.01	–
CN(C)CCCOc1ccc2c(NCCc3cnc(NC(=O)Nc4ccccc4)s3)ncnc2c1 [Compound 11]	8.10	4.96	–	75.8	7.67	7.03	–
O=C(Nc1cccc(Cl)c1)Nc1ncc(CCNc2ncnc3ccccc23)s1 [Compound 5]	7.16	5.18	7.82	92	7.19	5.85	selectivity for AURKA over FLT3 (AURKA): 100 fold
